Earlier results in patent publication US5093338A, “Lipophilic macrolide useful as an immunosuppressant” (Merck & Co., Inc., priority 1991, dated 1992).

Columns and labels:
transplantation = details: combination with Cyclosporin A; heart, kidney, bowel, pancreas or other transplantation
[1] = test system: adjuvant-induced arthritis; details: rats
[2] = test system: heterotopic heart allografts
antibody production = details: rats
[3] = test system: allergic encephalomyelitis; details: rats
[4] = rats given heterotopic heart allografts

**Q.** What does the source list for CO[C@H]1C[C@@H]2CC[C@@H](C)[C@@](O)(O2)C(=O)C(=O)N2CCCC[C@H]2C(=O)O[C@H]([C@H](C)C[C@@H]2CC[C@@H](O)[C@H](OC)C2)CC(=O)[C@H](C)/C=C(\C)[C@@H](O)[C@@H](OC)C(=O)[C@H](C)C[C@H](C)/C=C/C=C/C=C/1C [rapamycin]?
**A.** amount of Cyclosporin A required for immunosuppressive effect in combination (transplantation): reducing the amount of Cyclosporin A required; inhibiting the response to adjuvant-induced arthritis [1]: inhibiting the response to allergic encephalomyelitis,adjuvant-induced arthritis; immunosuppressive in rats given heterotopic heart allografts [2]: immunosuppressive; inhibiting antibody production (antibody production): inhibiting the response to allergic encephalomyelitis,adjuvant-induced arthritis and antibody production; inhibiting the response to allergic encephalomyelitis [3]: inhibiting the response to allergic encephalomyelitis; toxicity compared with that anticipated with FK-506 [4]: less toxicity was experienced than would be anticipated with FK-506
